Data as given in PMC11645267, “Novel pharmacologic inhibition of lysine-specific demethylase 1 as a potential therapeutic for glioblastoma” (Cancer Gene Therapy, 2024).
pIC50, pKi: −log10 of the molar value.

Legend:
GSC1228 = experiment: Cell proliferation assay (CellTiter-Glo 3D); format: cell-based; settings: GSC1228, 96 h; read-out: Growth inhibitory IC50 (GI50)
Description: (§1) Supplementary materials and methods […]
(§2) Cell lines and culture conditions […]
(§3) 2013 #1009}{Katsushima, 2016 #1156}. GSC cells were cultured in Neurobasal Medium (Life Technologies, Carlsbad, CA, USA) containing N2 and B27 supplements (Life Technologies) along with human recombinant basic fibroblast growth factor and epidermal growth factor (20 ng/ml each; R&D Systems, Minneapolis, MN, USA). Cells were cultured at 37°C in a humidified incubator with 5% CO2.
(§4) For the cell proliferation assay, cells at a density of 1 × 10^5 cells per well were seeded before treatment with LSD1 inhibitors. Cell proliferation was measured after 4 days using a Cell Counting Kit 8 (Dojindo, Kumamoto, Japan) according to the manufacturer ’s […]
(§5) instructions. For GSC cells, the CellTiter-Glo 3D Viability Assay (Promega, Madison, WI, USA) was used to measure the living cells. […]

GSC222 = experiment: Cell proliferation assay (CellTiter-Glo 3D); format: cell-based; settings: GSC222, 96 h; read-out: Growth inhibitory IC50 (GI50)
Description: as §1, §2, §3, §4, §5

GSC316 = experiment: Cell proliferation assay (CellTiter-Glo 3D); format: cell-based; settings: GSC316, 96 h; read-out: Growth inhibitory IC50 (GI50)
Description: as §1, §2, §3, §4, §5

F3 = experiment: Cell proliferation assay (Cell Counting Kit 8); format: cell-based; settings: 96 h; F3 (normal neural stem cell line), 4 days; read-out: Growth inhibitory IC50 (GI50)
From the text: as §1
(§6) Cell lines and culture conditions
(§7) Glioblastoma cell line, LN229, was obtained from the American Type Culture Collection (ATCC, Manassas, VA, USA). Normal fibroblast cell lines TIG3 and WI-38, TM31 (low grade glioma) were obtained from the RIKEN Bioresource Research Center (Tsukuba, Japan). Onda10 and KINGS1 (low grade glioma) cell lines were obtained from the Japanese Collection of Research Bioresources (Ibaraki, Japan). F3 is utilized as a neural stem cell line{Kim, 2004 #1412}{Natsume, 2013 #1009}. All cells were maintained in DMEM medium (Wako, Osaka, Japan) containing 5% fetal bovine serum (FBS, Thermo Fisher Scientific, Waltham, MA, USA) and 1% penicillin-streptomycin (Wako). […]
as §4, §5

KINGS1 = experiment: Cell proliferation assay (Cell Counting Kit 8); format: cell-based; settings: Homo sapiens, KINGS-1, 96 h; KINGS1 (grade III glioma), 4 days; read-out: Growth inhibitory IC50 (GI50)
From the text: as §1, §6, §7, §4, §5

LN229 = experiment: Cell proliferation assay (Cell Counting Kit 8); format: cell-based; settings: Homo sapiens, LN-229, 96 h; LN229 (GBM cell line), 4 days; read-out: Growth inhibitory IC50 (GI50)
From the text: as §1, §6, §7, §4, §5

Onda10 = experiment: Cell proliferation assay (Cell Counting Kit 8); format: cell-based; settings: 96 h; Onda10 (grade III glioma), 4 days; read-out: Growth inhibitory IC50 (GI50)
From the text: as §1, §6, §7, §4, §5

TIG3 = experiment: Cell proliferation assay (Cell Counting Kit 8); format: cell-based; settings: Homo sapiens, TIG-3, 96 h; TIG3 (normal fibroblast), 4 days; read-out: Growth inhibitory IC50 (GI50)
From the text: as §1, §6, §7, §4, §5

TM31 = experiment: Cell proliferation assay (Cell Counting Kit 8); format: cell-based; settings: 96 h; TM31 (grade III glioma), 4 days; read-out: Growth inhibitory IC50 (GI50)
From the text: as §1, §6, §7, §4, §5

WI38 = experiment: Cell proliferation assay (Cell Counting Kit 8); format: cell-based; settings: Homo sapiens, WI-38, 96 h; WI38 (normal fibroblast), 4 days; read-out: Growth inhibitory IC50 (GI50)
From the text: as §1, §6, §7, §4, §5

LSD2 = molecular target: T1, LSD2 (Homo sapiens, UniProt Q8NB78); parameters: method as in PMID 32166890; settings: cited from earlier work
T1 sequence (Q8NB78 1-822): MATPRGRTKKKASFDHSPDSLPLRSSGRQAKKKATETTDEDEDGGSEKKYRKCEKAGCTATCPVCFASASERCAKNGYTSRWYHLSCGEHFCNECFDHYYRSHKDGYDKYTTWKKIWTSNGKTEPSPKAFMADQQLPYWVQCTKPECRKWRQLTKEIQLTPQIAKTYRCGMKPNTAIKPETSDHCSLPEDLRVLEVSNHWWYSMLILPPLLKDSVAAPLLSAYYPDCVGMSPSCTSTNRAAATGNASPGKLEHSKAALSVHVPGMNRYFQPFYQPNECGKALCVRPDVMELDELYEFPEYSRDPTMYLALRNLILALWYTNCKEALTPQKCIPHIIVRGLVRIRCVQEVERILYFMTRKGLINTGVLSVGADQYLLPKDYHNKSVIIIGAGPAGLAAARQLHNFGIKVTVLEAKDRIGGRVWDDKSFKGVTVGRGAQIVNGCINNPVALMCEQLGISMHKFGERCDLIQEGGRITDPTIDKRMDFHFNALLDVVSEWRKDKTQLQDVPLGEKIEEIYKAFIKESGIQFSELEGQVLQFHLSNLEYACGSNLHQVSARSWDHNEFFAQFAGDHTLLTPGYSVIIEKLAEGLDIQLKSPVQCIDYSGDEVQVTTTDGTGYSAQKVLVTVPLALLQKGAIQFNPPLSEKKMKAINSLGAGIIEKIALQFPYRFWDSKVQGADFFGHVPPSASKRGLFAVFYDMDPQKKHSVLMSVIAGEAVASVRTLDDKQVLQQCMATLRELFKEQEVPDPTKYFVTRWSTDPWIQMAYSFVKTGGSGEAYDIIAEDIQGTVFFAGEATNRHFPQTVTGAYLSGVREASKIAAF

MAO-A = molecular target: T2, MAO-A (Homo sapiens, UniProt P21397); settings: cited from earlier work
T2 sequence (P21397 1-527): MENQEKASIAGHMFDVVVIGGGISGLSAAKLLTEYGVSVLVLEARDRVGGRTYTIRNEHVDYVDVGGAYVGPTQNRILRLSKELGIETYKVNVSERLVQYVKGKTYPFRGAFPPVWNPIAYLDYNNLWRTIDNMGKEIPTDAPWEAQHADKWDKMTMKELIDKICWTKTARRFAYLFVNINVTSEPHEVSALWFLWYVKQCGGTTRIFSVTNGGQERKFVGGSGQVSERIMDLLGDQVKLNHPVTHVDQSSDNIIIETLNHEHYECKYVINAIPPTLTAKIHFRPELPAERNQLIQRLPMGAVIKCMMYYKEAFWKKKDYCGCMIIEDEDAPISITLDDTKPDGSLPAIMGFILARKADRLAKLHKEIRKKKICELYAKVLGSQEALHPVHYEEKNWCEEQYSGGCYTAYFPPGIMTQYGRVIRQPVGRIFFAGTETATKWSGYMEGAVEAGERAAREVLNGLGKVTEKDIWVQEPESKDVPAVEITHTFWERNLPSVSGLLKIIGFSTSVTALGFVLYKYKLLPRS

MAO-B = molecular target: T3, MAO-B (Homo sapiens, UniProt P27338); settings: cited from earlier work
T3 sequence (P27338 1-520): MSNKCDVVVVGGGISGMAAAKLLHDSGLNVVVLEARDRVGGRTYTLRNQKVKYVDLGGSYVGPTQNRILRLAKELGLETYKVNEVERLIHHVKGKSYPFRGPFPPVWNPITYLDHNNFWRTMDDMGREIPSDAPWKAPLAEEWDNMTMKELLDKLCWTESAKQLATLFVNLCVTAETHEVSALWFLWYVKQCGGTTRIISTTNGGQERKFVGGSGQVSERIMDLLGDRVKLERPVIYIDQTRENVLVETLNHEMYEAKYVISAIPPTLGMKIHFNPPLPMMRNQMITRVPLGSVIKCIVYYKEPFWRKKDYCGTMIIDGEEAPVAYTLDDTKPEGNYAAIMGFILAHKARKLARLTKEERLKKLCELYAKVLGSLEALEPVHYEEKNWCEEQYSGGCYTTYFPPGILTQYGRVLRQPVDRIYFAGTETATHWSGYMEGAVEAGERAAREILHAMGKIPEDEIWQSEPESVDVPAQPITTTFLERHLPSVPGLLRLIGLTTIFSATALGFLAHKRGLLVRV

SMILES	pIC50 (GSC1228)	pIC50 (GSC222)	pIC50 (GSC316)	pIC50 (F3)	pIC50 (KINGS1)	pIC50 (LN229)	pIC50 (Onda10)	pIC50 (TIG3)	pIC50 (TM31)	pIC50 (WI38)	pKi (LSD2)	pKi (MAO-A)	pKi (MAO-B)
NC1CC1c1cc(F)cc(F)c1OCc1ccccc1 (stereo not drawn) [S2101]	< 4.40	< 4.40	< 4.40	4.59	4.72	4.92	4.60	< 4.40	5.16	< 4.40	< 3.60		
CN1CCN(C(=O)CNC2CC2c2cc(F)cc(F)c2OCc2ccccc2)CC1 (stereo not drawn) [S2157]	4.71	< 4.40	< 4.40	4.44	< 4.40	< 4.40	< 4.40	4.48	4.57	< 4.40	< 3.60	< 3.60	< 3.60
